{"source": "patent US20210085742A1", "about": "“FRUIT EXTRACT AND USES THEREOF” (THE UNIVERSITY OF NOTTINGHAM, priority 2017, published 2021)", "key": {"[1]": {"system": "cancer cells", "test": "dose calculation for inhibition of growth of cancer cells", "design": "species or system human"}, "[2]": {"system": "Neuroligin 1 (5'UTR) luciferase reporter", "test": "Neuroligin 1 5'UTR firefly luciferase reporter", "assay_type": "cell-based", "text": "(§1) Transient transfection conditions and luciferase reporter constructs—Firefly luciferase reporter plasmids containing the 5′ untranslated regions (UTRs) of the genes Neuroligin 1 and Neuroligin 2 were a kind gift from Professor Nahum Sonenberg (McGill) and used as described by Gkogkas et al, 2013. Nature, 17; 371-377.\n(§2) Cells were transfected using FuGene 6 (Roche) following the manufacturer's instructions. The activities of firefly and Renilla luciferase in lysates prepared from transfected cells were measured using a commercially available Luciferase reporter assay system (Promega) and light emission was measured over a 10 sec interval using either a TECAN luminometer. For each experiment described, data was obtained from a minimum of at least 3 biological repetitions per treatment."}, "[3]": {"system": "mice", "test": "mouse in vivo toxicity study", "details": "oral, 2000 mg/kg everyday for 14 days vs water control"}, "[4]": {"system": "Lung Carcinoma (A549)", "test": "anti-proliferative activity, wst-1, lung cancer cell line", "assay_type": "cell-based, human", "method": "Human tissue culture experiments—lung (A549), ovarian (OVCAR-3, SKOV), breast (MDA-MB-231) and prostate (PC-3) cancer cell lines were chosen to provide a broad profile of different cancer cell types and their response to treatment with the natural compound. Cell were seeded as a mono-layer in 96 well flat bottom Nunc tissue culture plates at a density of 10,000 cells per well and supplemented with RPMI 1640 media (Sigma Aldrich) containing 10% foetal calf serum, penicillin and streptomycin. Cells were then treated for 72 hours with a range of concentrations of MGDG either DMSO soluble, media soluble sample or the pure synthetic molecule. Four biological repetitions were tested for each dose. Activity of each treatment was then assessed using wst-1 reagent (Roche) as per the manufacturer's instructions. Data was visualised using a victor plate reader (Perkin Elmer) at a wavelength of 450 nm."}, "[5]": {"system": "Neuroligin 2 5'UTR luciferase reporter", "test": "Neuroligin 2 5'UTR firefly luciferase reporter", "assay_type": "cell-based", "text": "as §1, §2"}, "[6]": {"system": "IL-6", "test": "IL-6 inflammatory activity in IL-1α+TNFα treated cells", "assay_type": "cell-based", "details": "dose of about 10 μg"}}}
{"smiles": "CC/C=C\\C/C=C\\C/C=C\\CCCCCCCC(=O)OC[C@H](COC1OC(CO)C(O)C(O)C1O)OC(=O)CCCCCCC/C=C\\C/C=C\\C/C=C\\CC", "note": "(some centres unmarked) [MGDG, monogalactosyl diacylglycerol]", "values": [{"measurement": "inhibition in the growth of cancer cells", "setting": "[1]; daily dose of approximately 11 mgs, human", "value": 50, "unit": "%"}, {"measurement": "inhibition in the growth of cancer cells", "setting": "[1]; dose of approximately 5.5 mgs in a 60kg human", "value": 30, "unit": "%"}, {"measurement": "effect on Neuroligin 1 reporter", "setting": "[2]", "value": "can be dampened"}, {"measurement": "reduction in the levels of Neuroligin 1", "setting": "[2]; 10 μM dose, luciferase reporter system", "value": "about 35%"}, {"measurement": "survival or weight / toxicity", "setting": "[3]", "value": "no difference in survival or weight"}, {"measurement": "anti-cancer / anti-proliferative activity", "setting": "[4]", "value": "anti-proliferative effects"}, {"measurement": "effect on Neuroligin 2 reporter activity", "setting": "[5]", "value": "unaffected"}, {"measurement": "reduction of IL-6 inflammatory activity", "setting": "[6]", "value": "~80", "unit": "%"}]}
